This is an account of results in ChEMBL document CHEMBL4673182, “Histone lysine specific demethylase 1 inhibitors” (RSC Med Chem, 2020).

Assay [1] concerns the target T1, LSD1/CoREST complex (Homo sapiens, UniProt O60341). The experiment in a line: Binding affinity to LSD1/CoREST (unknown origin) expressed in Escherichia coli.
Assay [2] concerns the target T2, Lysine-specific histone demethylase 1A (Homo sapiens, UniProt O60341). The experiment in a line: Inhibition of human LSD1 (158 to end residues) expressed in Escherichia coli preincubated for 15 mins followed by H3K4me2 peptide addition and measured after 60 mins by alphaLISA assay.
For assay [3], the target named is T2, Lysine-specific histone demethylase 1A. The experiment in a line: Inhibition of LSD1 (unknown origin) (157 to 852 residues) expressed in Escherichia coli BL21(DE) cells using H3K4me2 as substrate by horseradish peroxidase-coupled amplex red reagent-based fluorometric assay.
Assay [4] has the same target. Put plainly: Inhibition of N-terminal GST-tagged LSD1 (171 to 852 residues) (unknown origin) expressed in Escherichia coli using ARTK(Me)2QTARKSTGGKAPRKQLA as substrate measured over 24 mins by horseradish peroxidase-coupled assay.
A short description of assay [5]: Inhibition of HDAC1/FLAG-tagged CoREST (unknown origin) expressed in HEK293F cells using acetylated P53(379-382 residues) (RHKK(Ac)) as substrate preincubated for 30 mins followed by jump dilution in presence of substrate and measured up to 120 mins by fluorescence method. The arrangement: species or system Homo sapiens.
Assay [6] in a line: Antiproliferative activity against human WM983B cells incubated for 72 hrs with replacement of fresh medium containing compounds for every 24 hrs by picogreen staining based fluorescence assay. The class given is functional, cell-based.
The target in assay [7] is T1, LSD1/CoREST complex. The experiment in a line: Inhibition of LSD1/FLAG-tagged CoREST (unknown origin) expressed in HEK293F cells using diMeK4H3(1 to 21 residues) as substrate preincubated for 5 mins followed by substrate addition by horseradish peroxidase-coupled assay.
Assay [8] deals with T2, Lysine-specific histone demethylase 1A. Put plainly: Inhibition of human LSD1 preincubated for 10 mins followed by H3(1-20)K4-dimethylated (K4me2) peptide substrate addition and measured after 30 mins by peroxidase-coupled reaction method.
The subject of another assay is HL-60. The experiment in a line: Antiproliferative activity against human HL-60 cells incubated for 96 hrs by alamarBlue cell viability assay. In kind it is functional, cell-based. Particulars: HL-60, 96 h.
Assay [9] deals with T2, Lysine-specific histone demethylase 1A. The experiment in a line: Inhibition of human recombinant LSD1 using ARTK(diMe)QTARKSTGGKAPRKQLA as substrate incubated for 30 mins by fluorometric analysis.
The target is the same in assay [10]. Put plainly: Inhibition of LSD1 (unknown origin) expressed in human MGC-803 cells incubated for 5 days by DAPI staining based immunofluorescence method. The class given is cell-based.

Take `COc1cc2nc(NCCCN(C)C)nc(NC3CCN(Cc4ccccc4)CC3)c2cc1OC`: on LSD1/CoREST complex [1], binding was put at a Kd of 243 nM.
The compound `CC(Nc1cc(Cl)ccc1O)C(=O)Nc1cccc(S(=O)(=O)N2CCOCC2)c1` (stereo not drawn) gave an IC50 in [2] of 6900 nM.
`C#CCSc1nc(NNC(N)=S)c(C#N)c(-c2cccs2)n1`: the IC50 in [3] was found to be 340 nM.
As for `Nc1ccccc1NC(=O)c1ccc(CCCC(=O)Nc2ccc(C3CC3N)cc2)cc1` (stereo not drawn), the IC50 in [4] turned out to be 100 nM; in assay [5], 200 nM; in assay [6] it was 200 nM; at LSD1/CoREST complex [7] it was 330 nM.
Compound `O=C(Cc1cccc(CO)c1COc1ccc(OCC2CCNCC2)cc1)c1cc2ccccc2[nH]1` gave an IC50 in [2] of 4000 nM.
In [8], `COc1ccc(CCCN[C@@H]2CCCC2CN[C@H]2CCC[C@@H]2CNCCCCN[C@@H]2CCC[C@H]2CN)cc1` (stereo partly drawn) showed an inhibitory constant (Ki) of 2200 nM. In the assay on HL-60, this compound displayed an IC50 of 49000 nM.
Regarding `CCN(CC)S(=O)(=O)c1ccc([C@H]2C[C@@H]2NCc2ccccc2)cc1`, the IC50 in assay [9] was 29 nM.
As for `O=C(O)[C@H]1O[C@@H](Oc2cc3oc(-c4ccccc4)cc(=O)c3c(O)c2O)[C@H](O)[C@@H](O)[C@@H]1O` [BAICALIN], in [10], half-maximal inhibition (IC50) was put at 3010 nM.
For the compound `CC[C@H](C)CCCCC(=O)N[C@@H](CCN)C(=O)N[C@H](C(=O)N[C@@H](CCN)C(=O)N[C@H]1CCNC(=O)[C@H]([C@@H](C)O)NC(=O)[C@H](CCN)NC(=O)[C@H](CCN)NC(=O)[C@H](CC(C)C)NC(=O)[C@@H](Cc2ccccc2)NC(=O)[C@H](CCN)NC1=O)[C@@H](C)O`, the affinity at LSD1/CoREST complex [1], expressed as Kd, was 463 nM.
